Test results reported in patent publication US7288622B1, “Composition for treatment of burns and wounds” (Issar Pharmaceuticals Pvt Ltd, priority 2006, dated 2007).
≈ marks a conversion by molar mass, not a printed value. Residues, ends and D or L forms follow the SMILES beside them.

Tests used:
physchem = assay type: physicochemical
Excerpt: The molecular weight of the peptide is 2776 and 3388 with counter ions. The peptide is water-soluble and forms an alpha helical secondary protein structure.

rats = assay: Acute toxicity test of the peptide in rats; assay type: in vivo; settings: 8.95 mg/kg intraperitoneal, single dose, inspected at 3rd, 6th, 12th and 24th hour, animals active on 14th day
Experimental: (§1) The safety of the peptide was tested with mice and rats at age of 4 to 6 weeks. The tests were conducted with five female mice and rats and five male mice and rats. The dose of the peptide injected intraperitoneal was 8.95 mg/kg for rats and 12.53 mg/kg for mice. The acute toxicity test was conducted at 3rd, 6th, 12th and 24th hour after exposure to the peptide. […] The animals were active still on 14th day.

mice = assay: Acute toxicity test of the peptide in mice; assay type: in vivo; settings: 12.53 mg/kg intraperitoneal, single dose, inspected at 3rd, 6th, 12th and 24th hour, animals active on 14th day
Experimental: as §1

## C[C@H](NC(=O)[C@H](Cc1ccccc1)NC(=O)[C@H](C)NC(=O)[C@H](Cc1ccccc1)NC(=O)[C@H](CCCCN)NC(=O)[C@H](C)NC(=O)[C@H](Cc1ccccc1)NC(=O)[C@H](CCCCN)NC(=O)[C@H](CCCCN)NC(=O)[C@H](C)NC(=O)[C@H](Cc1ccccc1)NC(=O)[C@H](CCCCN)NC(=O)[C@H](CCCCN)NC(=O)[C@H](Cc1ccccc1)NC(=O)[C@H](CCCCN)NC(=O)[C@H](CCCCN)NC(=O)[C@H](C)NC(=O)[C@H](Cc1ccccc1)NC(=O)[C@H](CCCCN)NC(=O)[C@H](CCCCN)NC(=O)[C@H](C)NC(=O)[C@@H](N)Cc1ccccc1)C(=O)N[C@@H](Cc1ccccc1)C(=O)O [peptide] (H-FAKKFAKKFKKFAKKFAKFAFAF-OH; N-terminus and C-terminus assumed)
physchem
  Solubility in 10% DMSO in saline: 32.25 mM (≈ 89.5 mg/mL)
physchem; saline or isotonic
  solubility: 31.6 mM (≈ 87.6 mg/mL)
rats
  Acute lethality: No lethality was found
mice
  Acute lethality: No lethality was found
